Data on one compound can be found in patent US11648258B2, “Method and compounds for inhibiting the MCM complex and their application in cancer treatment” (priority 2012, dated 2023).

Assay [1] relates to HeLa cells. In words: BrdU incorporation assay (DNA replication) in HeLa cells. The class given is cell-based, human. How it is done: Hela cells grown on cover slips coated with poly-D-lysine were incubated with 50 μM BrdU (Sigma) for 1 hr at 37° C. after 24 hrs of 17beta-Deacetyltanghinin treatment. Cells were then fixed in with 4% of PFA in PBS at room temperature for 20 min, permeabilized with 0.1% Triton X-100 and 1% BSA in PBS for 20 min, and then incubated sequentially with anti-BrdU (Sigma Chemical Company; 1:500) and anti-mouse IgG-FITC conjugates (Sigma Chemical Company; 1:500), each for 1 hr at 37° C., with three washes in PBS after each antibody incubation. BrdU signal was observed under the fluorescence microscope (Nikon TE2000E).
As 17beta-Deacetyltanghinin disrupts the interactions between hMcm2 and hMcm6 and inhibits the association of MCM proteins with chromatin, 17beta-Deacetyltanghinin should block DNA replication. To confirm this, we treated HeLa cells with 17beta-Deacetyltanghinin for 24 hrs and then labeled them with BrdU for 1 hr. Incorporated BrdU in the cellular DNA was detected by an anti-BrdU antibody followed by FITC-anti-mouse secondary antibodies which was visualized under the fluorescence microscope (FIG. 6A). DAPI was used to stain the nuclei (FIG. 6A), and the percentage of BrdU positive cells was quantified (FIG. 6B). […]
A general note: Incorporation of labelled thymidine or its analogues reports DNA synthesis.

Assay [2] has as its system cancer cells (HeLa, HepG2). In words: Flow cytometry / Annexin V staining (cell cycle, apoptosis) in cancer cells. The format is cell-based, human. As for the experimental part:
Both floating and attached cells were collected and washed once with PBS. Cells were fixed in 70% ethanol for 1 hr to overnight at −20° C., washed thoroughly with PBS, and then stained in 50 μg/ml RNase A, 0.1% Triton X-100, 0.1 mM EDTA (pH 7.4), and 50 μg/ml propidium iodide for 30 min at 4° C. Samples were analyzed with the FACSort instrument (Becton Dickinson).
Moreover, inhibition of DNA replication and subsequent induction of apoptosis by 17beta-Deacetyltanghinin could be shown by flow cytometry. In FIG. 7. Hela cells were blocked at M phase by Nocodazole (Noc.; FIG. 7A), the G1/S transition by mimosine (MMS; FIG. 7B), or at early S phase by Hydroxyurea (HU; FIG. 7C) and then released into fresh medium in the presence of 17beta-Deacetyltanghinin (DAT). The cells at different time points after release were analyzed by follow cytometry. Ayn. means asynchronous cells. Untreated cells and cells treated with the solvent DMSO could complete M, G1 and S phases after release (FIG. 7A). […] Similarly, cells released from the Mimosine (MMS) arrest (at the G1/S transition; FIG. 7B) or Hydroxyurea (HU) arrest (in early S phase; FIG. 7C) could not finish S phase in the presence of 17beta-Deacetyltanghinin.
In FIG. 8A, flow cytometry was performed to analyze the DNA contents in HepG2 and L-02 cells treated with 17beta-Deacetyltanghinin at various concentrations for 24 hrs. In FIG. 8B, Hela cells were treated with 17beta-Deacetyltanghinin for 24 hrs and labeled with Annexin V-Cy3 (Arm. Cy3) for 20 min. Mitoxantrone (MTX), a clinical anticancer drug that can induce apoptosis in cancer cells, was used as a positive control.
For orientation: A flow cytometer gives signals particle by particle.

Assay [3] deals with T1, hMcm2 and hMcm6 chromatin association (Homo sapiens, UniProt P49736+Q14566).
T1 construct: endogenous in cells; host or cells: HeLa
In words: Chromatin binding assay (pre-RC assembly) in HeLa cells. The format is cell-based. How it is done: Cells were harvested by trypsinization and washed twice with cold PBS. Extraction buffer (EB; ˜20 μl/10^6 cells) (100 mM KCl, 50 mM HEPES-KOH pH7.5, 2.5 mM MgCl2, 50 mM NaF, 5 mM Na4P2O7, 0.1 mM NaVO3, 0.5% Triton X-100, 1 mM PMSF, 2 μg/ml Pepstatin A, 20 μg/ml Leupeptin, 20 μg/ml Aprotinin, 0.2 mM Pefabloc, 2 mM Benzamidine HCl and 0.2 mg/ml Bacitracin) was added to resuspend and lyse the cells by pippetting. Cells were set on ice for 10 min, and flicked to mix every 2-3 min during the incubation. A volume of 30% ice-cold sucrose equal to EB containing protease inhibitors as in EB was added to the bottom of tube. The tube was spun at top speed in a microcentrifuge for 10 min to separate the chromatin and free proteins. The supernatant was transferred to a new tube and kept on ice. […]
As the component of pre-RC, the MCM complex plays a central role in the licensing of DNA replication. […] In FIGS. 5A and B, asynchronous Hela cells were treated with 17beta-Deacetyltanghinin for 24 hrs and analyzed by the chromatin binding assay (FIG. 5A). Untreated cells (Untreat.), cells treated with the solvent DMSO, and those treated with 0.2, 0.4 or 0.8∝g/ml 17beta-Deacetyltanghinin were analyzed for pre-RC components in the chromatin and supernatant fractions by immunoblotting (FIG. 5A). […] Each cell sample was also analyzed for cell cycle distribution by flow cytometry (FIG. 5B). […]

T1 sequence (P49736 2-904 limits assumed): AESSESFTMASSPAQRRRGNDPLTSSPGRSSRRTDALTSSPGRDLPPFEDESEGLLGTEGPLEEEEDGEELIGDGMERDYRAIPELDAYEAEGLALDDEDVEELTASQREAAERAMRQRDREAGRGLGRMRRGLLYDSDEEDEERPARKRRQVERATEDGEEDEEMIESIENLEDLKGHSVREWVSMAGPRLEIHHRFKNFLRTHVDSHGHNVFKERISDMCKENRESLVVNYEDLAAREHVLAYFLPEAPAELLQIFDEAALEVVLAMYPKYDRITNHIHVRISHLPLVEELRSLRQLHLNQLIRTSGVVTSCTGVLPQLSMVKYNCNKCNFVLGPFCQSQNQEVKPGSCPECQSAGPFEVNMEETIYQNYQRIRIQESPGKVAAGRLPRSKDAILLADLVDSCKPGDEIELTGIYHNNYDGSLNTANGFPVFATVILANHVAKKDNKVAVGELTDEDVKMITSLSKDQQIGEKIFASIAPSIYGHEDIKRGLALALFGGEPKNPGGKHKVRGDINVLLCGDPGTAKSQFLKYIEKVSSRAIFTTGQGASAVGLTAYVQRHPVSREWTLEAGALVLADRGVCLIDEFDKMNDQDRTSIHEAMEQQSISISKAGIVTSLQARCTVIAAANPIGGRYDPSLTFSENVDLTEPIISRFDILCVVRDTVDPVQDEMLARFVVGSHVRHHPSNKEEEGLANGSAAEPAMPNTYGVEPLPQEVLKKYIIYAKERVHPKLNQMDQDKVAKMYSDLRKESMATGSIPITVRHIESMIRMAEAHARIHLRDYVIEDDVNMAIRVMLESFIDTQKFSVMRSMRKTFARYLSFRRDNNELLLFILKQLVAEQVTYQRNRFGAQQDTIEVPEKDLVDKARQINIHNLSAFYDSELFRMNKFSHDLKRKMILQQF
T1 sequence (Q14566 whole entry): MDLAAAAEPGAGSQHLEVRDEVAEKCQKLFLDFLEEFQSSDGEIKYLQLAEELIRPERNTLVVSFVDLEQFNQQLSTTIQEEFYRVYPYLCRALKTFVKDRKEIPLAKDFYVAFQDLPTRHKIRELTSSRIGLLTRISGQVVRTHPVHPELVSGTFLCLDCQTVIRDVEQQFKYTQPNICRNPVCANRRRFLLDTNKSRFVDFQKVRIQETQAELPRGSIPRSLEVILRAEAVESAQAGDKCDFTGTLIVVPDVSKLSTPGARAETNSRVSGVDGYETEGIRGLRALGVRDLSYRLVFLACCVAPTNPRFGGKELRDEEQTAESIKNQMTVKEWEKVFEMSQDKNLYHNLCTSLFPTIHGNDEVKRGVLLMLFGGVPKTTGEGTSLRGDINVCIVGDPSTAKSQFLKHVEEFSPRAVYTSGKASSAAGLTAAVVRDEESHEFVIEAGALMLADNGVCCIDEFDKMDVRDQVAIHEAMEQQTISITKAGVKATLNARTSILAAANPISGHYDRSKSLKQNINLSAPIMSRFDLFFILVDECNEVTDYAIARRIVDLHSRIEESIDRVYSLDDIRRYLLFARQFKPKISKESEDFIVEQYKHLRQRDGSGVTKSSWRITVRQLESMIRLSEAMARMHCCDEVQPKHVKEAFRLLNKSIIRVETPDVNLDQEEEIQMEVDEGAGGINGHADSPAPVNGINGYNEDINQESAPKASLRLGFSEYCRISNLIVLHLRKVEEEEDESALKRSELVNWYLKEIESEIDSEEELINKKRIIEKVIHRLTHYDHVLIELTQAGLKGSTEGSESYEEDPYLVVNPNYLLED

Regarding `COC1C(O)[C@H](O[C@H]2CC[C@]3(C)C4CC[C@]5(C)[C@@H](C6=CC(=O)OC6)CC[C@]5(O)[C@@]45O[C@H]5C[C@@H]3C2)OC(C)[C@@H]1O` (stereo partly drawn) [17beta-Deacetyltanghinin, 3β-O-(3-O-methyl-6-deoxy-α-L-glucopyranosyl)-7β,8β-epoxy-14β-hydroxy-card-20(22)-enolide], the BrdU positive cells in assay [1] (HeLa cells arrested with Mimosine, 12 hrs pre-treatment, released in presence of compound, controls ~100%) is reported as ~40%. The “BrdU signal (DNA replication)” value in assay [1] (asynchronous HeLa cells, 24 hrs, above 0.2 ∝g/ml) is “almost no BrdU signal”. For the same compound, the “Annexin V staining (apoptosis)” value in assay [2] (HeLa cells, 24 hrs, Annexin V-Cy3) was “could be stained by Annexin V”. Moreover, in assay [2] (HeLa cells, flow cytometry), the “cell cycle progression after release from Nocodazole arrest” value is listed as “could complete mitosis but could not enter S phase”. Moreover, the “induction of apoptosis (sub-G1 population, flow cytometry)” value in assay [2] (cancer cells) is given as “induced apoptotic cell death in cancer cells”. Further, in assay [3] (HeLa cells released from nocodazole M phase arrest), the “MCM loading onto chromatin” value is listed as “largely prevented”. For the same compound, the “hMcm2 and hMcm6 in chromatin fractions” value in assay [3] (asynchronous HeLa cells, 24 hrs, 0.2, 0.4 or 0.8 ∝g/ml) is reported as “significantly reduced”.
